The source of these data is article PMC11855827, “High-Throughput Screening of Five Compound Libraries for Anthelmintic Activity and Toxicity Leads to the Discovery of Two Flavonoid Compounds” (International Journal of Molecular Sciences, 2025).

In the assay the test system is C. elegans. To be noted: Table S2, C. elegans SS assay, 110 μM, averages of 4 data points.

In the case of `CCCCCC(=O)Oc1c(Br)cc(Br)cc1Br` [2,4,6‐Tribromophenyl caproate], the “Percentage of motility inhibition 0 h” value was found to be 48% and the “Percentage of motility inhibition 24 h” value turned out to be 57%.

For `Cc1ccc2nc(C)ccc2c1` [2,6‐Dimethylquinoline], the “Percentage of motility inhibition 0 h” value was 0% and the “Percentage of motility inhibition 24 h” value was 6%.

For `OCc1ccc(O)cn1` [2‐Hydroxymethyl‐5‐hydroxypyridine], the “Percentage of motility inhibition 0 h” value is listed as 0% and the “Percentage of motility inhibition 24 h” value was 0%.

Turning to `COc1ccc(-c2cc(=O)c3c(OC)c(OC)c(OC)c(OC)c3o2)cc1O` [3'‐Demethylnobiletin], the “Percentage of motility inhibition 0 h” value came out at 0% and the “Percentage of motility inhibition 24 h” value came to 0%.

In the case of `O=c1c(-c2ccc(O)c(O)c2)coc2c([C@@H]3O[C@H](CO)[C@@H](O)[C@H](O)[C@H]3O)c(O)ccc12` [3'‐Hydroxypuerarin], the “Percentage of motility inhibition 0 h” value is listed as 1% and the “Percentage of motility inhibition 24 h” value is 0%.

`COc1cccc(-c2oc3ccccc3c(=O)c2O)c1` [3'‐Methoxyflavonol]: the “Percentage of motility inhibition 0 h” value was determined as 9% and the “Percentage of motility inhibition 24 h” value is given as 0%.

Consider `COc1cc(-c2coc3c([C@@H]4O[C@H](CO)[C@@H](O)[C@H](O)[C@H]4O)c(O)ccc3c2=O)ccc1O` [3'‐Methoxypuerarin], for which the “Percentage of motility inhibition 0 h” value amounted to 11% and the “Percentage of motility inhibition 24 h” value came to 51%.

Consider `COc1ccc(-c2oc3c(OC)c(OC)c(OC)c(OC)c3c(=O)c2OC)cc1OC` [3,5,6,7,8,3',4'‐Heptemthoxyflavone], for which the “Percentage of motility inhibition 0 h” value turned out to be 34% and the “Percentage of motility inhibition 24 h” value turned out to be 6%.

`COc1cc(OC)c2c(=O)c(OC)c(-c3ccc(OC)c(OC)c3)oc2c1` [3,5,7,3′,4′‐Pentamethoxyflavone]: the “Percentage of motility inhibition 0 h” value came out at 2% and the “Percentage of motility inhibition 24 h” value is given as 24%.

Consider `O=c1c(O)c(-c2ccc(O)cc2)oc2cc(O)ccc12` [3,7,4'‐Trihydroxyflavone], for which the “Percentage of motility inhibition 0 h” value came out at 0% and the “Percentage of motility inhibition 24 h” value is on record as 16%.

For `CC1(COC(=O)c2ccccc2)CCC2(C)CCC3(C)C4=CCC5C(C)(CCC(OC(=O)c6ccccc6)C5(C)C)C4=CCC3(C)C2C1` (stereo not drawn) [3,29-O-Dibenzoyloxykarounidiol], the “Percentage of motility inhibition 0 h” value is 15% and the “Percentage of motility inhibition 24 h” value was found to be 9%.

In the case of `CC(=O)O[C@@H]1CC[C@@]2(C)[C@@H](CC[C@]3(C)[C@@H]2CC=C2[C@@H]4[C@@H](C)[C@H](C)CC[C@]4(C)CC[C@]23C)[C@@]1(C)C(=O)O` [3-Acetyl-beta-boswellic acid], the “Percentage of motility inhibition 0 h” value was 15% and the “Percentage of motility inhibition 24 h” value was 21%.

Consider `CC(C)=CCCC(C(=O)O)C1CCC2(C)C3=C(CCC12C)C1(C)CCC(=O)C(C)(C)C1CC3` (stereo not drawn) [3-Dehydrotrametenolic acid], for which the “Percentage of motility inhibition 0 h” value turned out to be 17% and the “Percentage of motility inhibition 24 h” value is recorded as 37%.

Regarding `CC1(C)CC[C@]2(C(=O)O)CC[C@]3(C)C(=CC[C@@H]4[C@@]5(C)CC[C@@H](O)C(C)(C)[C@@H]5CC[C@]43C)[C@@H]2C1` [3-Epioleanolic acid], the “Percentage of motility inhibition 0 h” value is 29% and the “Percentage of motility inhibition 24 h” value worked out at 34%.

With `C[C@H]1[C@H](C)CC[C@]2(C(=O)O)CC[C@]3(C)C(=CC[C@@H]4[C@@]5(C)CC[C@H](O)C(C)(C)[C@@H]5CC[C@]43C)[C@H]12` [3-Epiursolic Acid], the “Percentage of motility inhibition 0 h” value is 3% and the “Percentage of motility inhibition 24 h” value was determined as 18%.

In the case of `CC(=O)O[C@H]1CC[C@]2(C)C3=C(CC[C@H]2C1(C)C)[C@]1(C)C[C@@H](O)[C@H]([C@@H](CCC=C(C)C)C(=O)O)[C@@]1(C)CC3` [3-O-Acetyl-16α-hydroxytrametenolic acid], the “Percentage of motility inhibition 0 h” value was determined as 7% and the “Percentage of motility inhibition 24 h” value was determined as 10%.

Consider `CC(=O)OC1CCC2(C)C(CCC3(C)C2CC=C2C4CC(C)(C)CCC4(C)CCC23C)C1(C)C(=O)O` (stereo not drawn) [3-O-Acetyl-α-boswellic acid], for which the “Percentage of motility inhibition 0 h” value is 20% and the “Percentage of motility inhibition 24 h” value is 14%.

On to `CC1(C)CC[C@]2(C(=O)O)[C@H](O)C[C@]3(C)C(=CC[C@@H]4[C@@]5(C)C[C@H](O)[C@H](O[C@@H]6O[C@H](CO)[C@@H](O)[C@H](O)[C@H]6O)C(CO)(CO)[C@@H]5CC[C@]43C)[C@@H]2C1` [3-O-Beta-D-Glucopyranosylplatycodigenin], for which the “Percentage of motility inhibition 0 h” value was 0% and the “Percentage of motility inhibition 24 h” value was found to be 0%.

`CSCCC(=O)O` [3‐(Methylthio)propionic acid]: the “Percentage of motility inhibition 0 h” value amounted to 9% and the “Percentage of motility inhibition 24 h” value was 0%.

In the case of `CCN1C[C@]2(COC)CC[C@H](OC)C34C1C([C@H](OC)[C@@H]32)[C@]1(OC(C)=O)[C@@H]2[C@H]4C[C@@](O)([C@@H]2OC(=O)c2ccccc2)[C@@H](OC)[C@@H]1O` [3‐Deoxyaconitine], the “Percentage of motility inhibition 0 h” value was 9% and the “Percentage of motility inhibition 24 h” value amounted to 0%.

As to `Oc1cccnc1` [3‐Hydroxypyr idine], the “Percentage of motility inhibition 0 h” value is on record as 18% and the “Percentage of motility inhibition 24 h” value is 19%.

Consider `Cc1ncccc1O` [3‐Hydroxy‐2‐methylpyridine], for which the “Percentage of motility inhibition 0 h” value is given as 15% and the “Percentage of motility inhibition 24 h” value is reported as 0%.

Turning to `O=C(O)Cc1c[nH]c2ccccc12` [3‐Indoleacetic acid], the “Percentage of motility inhibition 0 h” value turned out to be 4% and the “Percentage of motility inhibition 24 h” value is recorded as 11%.

Consider `Cl.Cl.Cn1cncc1CCN` [3‐Methylhistamine (dihydrochloride)], for which the “Percentage of motility inhibition 0 h” value was 4% and the “Percentage of motility inhibition 24 h” value was 0%.

For `COc1c(-c2ccccc2)oc2cc(O)cc(O)c2c1=O` [3‐O‐Methylgalangin], the “Percentage of motility inhibition 0 h” value is 0% and the “Percentage of motility inhibition 24 h” value worked out at 4%.

For `O=c1cc(-c2ccc(O)cc2)oc2cccc(O)c12` [4',5‐Dihydroxyflavone], the “Percentage of motility inhibition 0 h” value is reported as 39% and the “Percentage of motility inhibition 24 h” value was 6%.

Consider `COc1ccc(-c2coc3cc(OC)ccc3c2=O)cc1` [4',7‐Dimetho xyisoflavone], for which the “Percentage of motility inhibition 0 h” value turned out to be 21% and the “Percentage of motility inhibition 24 h” value is listed as 27%.

For the compound `COc1ccc(-c2coc3c([C@@H]4O[C@H](CO)[C@@H](O)[C@H](O)[C@H]4O)c(O)ccc3c2=O)cc1` [4'‐Methoxypuerarin], the “Percentage of motility inhibition 0 h” value worked out at 14% and the “Percentage of motility inhibition 24 h” value was 3%.

As to `COCc1c(CO)cnc(C)c1O` [4'‐O‐Methylpyridoxine], the “Percentage of motility inhibition 0 h” value is recorded as 26% and the “Percentage of motility inhibition 24 h” value was 1%.

Turning to `COc1ccc(/C=C/C(=O)c2ccc(OC)cc2)cc1` [4,4'‐Dimetho xychalcone], the “Percentage of motility inhibition 0 h” value is 24% and the “Percentage of motility inhibition 24 h” value is recorded as 3%.

As to `CC1=COC(=O)[C@H]2[C@@H]1CC[C@@H]2C` [4aα,7α,7aα-Nepetalactone], the “Percentage of motility inhibition 0 h” value is 17% and the “Percentage of motility inhibition 24 h” value is recorded as 16%.

`CN1C[C@H](O)C[C@H]1C(=O)O` [4‐Hydroxyhygric acid]: the “Percentage of motility inhibition 0 h” value stood at 21% and the “Percentage of motility inhibition 24 h” value came out at 0%.

With `CC1(C)C=Cc2c(ccc(C(=O)/C=C/c3ccc(O)cc3)c2O)O1` [4‐Hydroxylonchocarpin], the “Percentage of motility inhibition 0 h” value is given as 11% and the “Percentage of motility inhibition 24 h” value came to 9%.

`O=Cc1c[nH]c2cccc(O)c12` [4‐Hydroxy‐1H‐indole‐3‐carbaldehyde]: the “Percentage of motility inhibition 0 h” value is reported as 23% and the “Percentage of motility inhibition 24 h” value turned out to be 5%.

Take `O=c1cc(-c2ccc(O)cc2)oc2c(C3O[C@H](CO)[C@@H](O[C@@H]4O[C@H](CO)[C@@H](O)[C@H](O)[C@H]4O)[C@H](O)[C@H]3O)c(O)cc(O)c12` (stereo partly drawn) [4”‐O‐Glucosylvitexin]: the “Percentage of motility inhibition 0 h” value came to 0% and the “Percentage of motility inhibition 24 h” value was found to be 0%.

Regarding `COc1cc(OC)c2c(=O)cc(-c3ccc(OC)c(OC)c3)oc2c1` [5,7,3',4'‐Tetramethoxyflavone], the “Percentage of motility inhibition 0 h” value was 0% and the “Percentage of motility inhibition 24 h” value is reported as 0%.

Take `COc1ccc(-c2cc(=O)c3c(OC)cc(OC)cc3o2)cc1` [5,7,4'‐Trimethoxyflavone]: the “Percentage of motility inhibition 0 h” value came to 0% and the “Percentage of motility inhibition 24 h” value came to 1%.

On to `O=c1ccoc2cc(O)cc(O)c12` [5,7‐Dihydroxychromone], for which the “Percentage of motility inhibition 0 h” value came to 0% and the “Percentage of motility inhibition 24 h” value amounted to 0%.

For the compound `COc1cc(OC)c2c(=O)cc(-c3ccccc3)oc2c1` [5,7‐Dimethoxyflavone], the “Percentage of motility inhibition 0 h” value was found to be 37% and the “Percentage of motility inhibition 24 h” value is 15%.

As for `COc1cc(OC)c2c(=O)cc(-c3ccc(O)c(O)c3)oc2c1` [5,7‐Dimethoxyluteolin], the “Percentage of motility inhibition 0 h” value is listed as 24% and the “Percentage of motility inhibition 24 h” value is on record as 13%.

As for `C=C1CCC2C(C=C(C)C(=O)C3(OC(C)=O)CC(C)C(OC(=O)c4ccccc4)C3C1OC(C)=O)C2(C)C` (stereo not drawn) [5,15-Diacetyl-3-benzoyllathyrol], the “Percentage of motility inhibition 0 h” value is reported as 30% and the “Percentage of motility inhibition 24 h” value worked out at 32%.

As for `CC(=O)[C@H]1CC[C@H]2[C@@H]3CC[C@H]4CC(=O)CC[C@]4(C)[C@H]3CC[C@]12C` [5a‐Pregnane‐3,20‐dione], the “Percentage of motility inhibition 0 h” value is 2% and the “Percentage of motility inhibition 24 h” value stood at 17%.

Consider `C=C(C(=O)O)[C@@H]1CC[C@@]2(C)CCCC(=C)[C@]2(O)C1` [5α-Hydroxycostic acid], for which the “Percentage of motility inhibition 0 h” value worked out at 13% and the “Percentage of motility inhibition 24 h” value came out at 18%.

`COc1ccc(-c2cc(=O)c3c(O)c(OC)c(OC)cc3o2)cc1OC` [5‐Desmethylsinensetin]: the “Percentage of motility inhibition 0 h” value is given as 2% and the “Percentage of motility inhibition 24 h” value stood at 11%.

`O=C1Cc2cc(O)ccc2N1` [5‐Hydroxyoxindole]: the “Percentage of motility inhibition 0 h” value turned out to be 15% and the “Percentage of motility inhibition 24 h” value was determined as 10%.
